Results from patent US20080145313A1, “Compositions and Methods for the Treatment and Prevention of Neoplastic Disorders” (Genesis Research & Development Corporation Limited, priority 2006, published 2008).

Key:
[1] = tested on: target transcript mRNA in A549 cells; assay: Level of mRNA of target transcript in A549 cells by quantitative RT-PCR (Tables 12 and 13); assay type: cell-based, human; settings: 24 h post-transfection; for mRNA knockdown of transporter gene target transcript, 0.1 nM / mRNA knockdown of energy and metabolism gene target transcript, 0.1 nM: 0.1 nM siRNA; for mRNA knockdown of transporter gene target transcript, 1 nM / mRNA knockdown of energy and metabolism gene target transcript, 1 nM: 1 nM siRNA
How it was run: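 A549 cells were transfected with siRNA at 0.1, 1.0 and 10 nM. RNA was extracted 24 h later, reverse-transcribed with random primers, and target mRNA quantified by SYBR Green qRT-PCR. Values were normalised to housekeeping genes HPRT and Lamin.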

A549 cells = assay: Growth inhibition of siRNA-transfected A549 cells, SYBR Green I DNA content; assay type: cell-based, human; settings: 10 nM siRNA, DNA content 96 hours after transfection; for Growth Inhibition in A549 cells by 10 nM siRNA: transporter gene targets
How it was run: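 A549 cells reverse-transfected with 10 nM Stealth siRNAs via Lipofectamine RNAiMAX, seeded at 5×10^3 cells/cm^2 in RPMI 1640/10% FCS; non-specific siRNA control. DNA content read 96 h post-transfection by SYBR Green I fluorescence (ex 485/em 535 nm) after freeze-thaw and Triton X-100 lysis; mean of three wells.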

| Substance | mRNA knockdown of transporter gene target transcript, 0.1 nM [1] | mRNA knockdown of transporter gene target transcript, 1 nM [1] | Growth Inhibition in A549 cells by 10 nM siRNA (A549 cells) | mRNA knockdown of energy and metabolism gene target transcript, 0.1 nM [1] | mRNA knockdown of energy and metabolism gene target transcript, 1 nM [1] | Growth Inhibition in A549 cells (A549 cells) |
| --- | --- | --- | --- | --- | --- | --- |
| SEQ ID NO: 4892: siRNA targeting SLC2A1 (GLUT1) (chain 1 TGTCTTATCACTTTGGCTGGCTCCC; chain 2 UGUCUUAUCACUUUGGCUGGCUCCC; Antisense strand given in DNA and RNA notation, chemistry not given here; one strand in two spellings) | − (<50% mRNA knockdown) | − (<50% mRNA knockdown) | + (inhibits by at least 50%) |  |  |  |
| SEQ ID NO: 5306: Stealth siRNA targeting RRM2 (chain 1 TGTCCAGGTGTTTGAACATCAGGC; chain 2 UGUACCAGGUGUUUGAACAUCAGGC; Stealth siRNA, chemical pattern not given here) |  |  |  | ++ (70-90% mRNA knockdown) | + (50-70% mRNA knockdown) | ++ (inhibits by at least 75%) |
| SEQ ID NO: 4907: siRNA targeting SLC3A2 (4F2hc) (chain 1 TTTGTTGGATTCGAGTAGGCTCAGG; chain 2 UUUGUUGGAUUCGAGUAGGCUCAGG; Antisense strand given in DNA and RNA notation, chemistry not given here; one strand in two spellings) | − (<50% mRNA knockdown) | − (<50% mRNA knockdown) | − (no growth inhibition) |  |  |  |
| SEQ ID NO: 4970: siRNA targeting ABCC4 (MRP4) (chain 1 AATCTTGGAAATCTCCTTCTTTCTC; chain 2 AAUCUUGGAAAUCUCCUUCUUUCUC; chemistry not given here; one strand in two spellings) | ++ (70-90% mRNA knockdown) | ++ (70-90% mRNA knockdown) | − (no growth inhibition) |  |  |  |
| SEQ ID NO: 4957: siRNA targeting ATP6V1C1 (chain 1 TAGACCTTGGAACTACCATTTCGGC; chain 2 UAGACCUUGGAACUACCAUUUCGGC; chemistry not given here; one strand in two spellings) | ++ (70-90% mRNA knockdown) | ++ (70-90% mRNA knockdown) | − (no growth inhibition) |  |  |  |
| SEQ ID NO: 4936: siRNA targeting SLC29A2 (ENT2) (chain 1 AAGATCCAGGGTCAGAGCTACTTTC; chain 2 AAGAUCCAGGGUCAGAGCUACUUUC; chemistry not given here; one strand in two spellings) | − (<50% mRNA knockdown) | − (<50% mRNA knockdown) | − (no growth inhibition) |  |  |  |
| SEQ ID NO: 4978: siRNA targeting ABCB1 (MDR1) (chain 1 TTGGTACTAAGCTTTCTGTCTTGGG; chain 2 UUGGUACUAAGCUUUCUGUCUUGGG; chemistry not given here; one strand in two spellings) | − (<50% mRNA knockdown) | − (<50% mRNA knockdown) | − (no growth inhibition) |  |  |  |
| SEQ ID NO: 4896: siRNA targeting SLC2A5 (GLUT5) (chain 1 AAGTCTTCCATGAATTCACCGGTCC; chain 2 AAGUCUUCCAUGAAUUCACCGGUCC; Antisense strand given in DNA and RNA notation, chemistry not given here; one strand in two spellings) | − (<50% mRNA knockdown) | − (<50% mRNA knockdown) | − (no growth inhibition) |  |  |  |
| SEQ ID NO: 4966: siRNA targeting ATP7A (chain 1 ATAGCTCCCAATTTGAGGTACTTGG; chain 2 AUAGCUCCCAAUUUGAGGUACUUGG; chemistry not given here; one strand in two spellings) | − (<50% mRNA knockdown) | − (<50% mRNA knockdown) | − (no growth inhibition) |  |  |  |
| SEQ ID NO: 4965: siRNA targeting ATP7A (chain 1 TTATAATGCAGTGTCATCATCTTCC; chain 2 UUAUAAUGCAGUGUCAUCAUCUUCC; chemistry not given here; one strand in two spellings) | − (<50% mRNA knockdown) | − (<50% mRNA knockdown) | − (no growth inhibition) |  |  |  |
| SEQ ID NO: 4948: siRNA targeting ATP2B4 (PMCA4) (chain 1 ATCTGAGTCTGGATACGGTTCAGGC; chain 2 AUCUGAGUCUGGAUACGGUUCAGGC; chemistry not given here; one strand in two spellings) | − (<50% mRNA knockdown) | ++ (70-90% mRNA knockdown) | − (no growth inhibition) |  |  |  |
| SEQ ID NO: 4955: siRNA targeting ATP6V1C1 (chain 1 TTGATTGGATATTTGGCCATGTCCC; chain 2 UUGAUUGGAUAUUUGGCCAUGUCCC; chemistry not given here; one strand in two spellings) | + (50-70% mRNA knockdown) | ++ (70-90% mRNA knockdown) | − (no growth inhibition) |  |  |  |
| SEQ ID NO: 4905: siRNA targeting SLC7A11 (xCT) (chain 1 ATTATGAGGAGTTCCACCCAGACTC; chain 2 AUUAUGAGGAGUUCCACCCAGACUC; Antisense strand given in DNA and RNA notation, chemistry not given here; one strand in two spellings) | ++ (70-90% mRNA knockdown) | ++ (70-90% mRNA knockdown) | ++ (inhibits by at least 75%) |  |  |  |
| SEQ ID NO: 4910: siRNA targeting SLC5A6 (SMVT1) (chain 1 AAGGCAAGGCCTCTGGAAAGCATGA; chain 2 AAGGCAAGGCCUCUGGAAAGCAUGA; Antisense strand given in DNA and RNA notation, chemistry not given here; one strand in two spellings) | − (<50% mRNA knockdown) | + (50-70% mRNA knockdown) | − (no growth inhibition) |  |  |  |
| SEQ ID NO: 4968: siRNA targeting ATP7B (chain 1 ATATCCCGTGGACCGATAATTTCCG; chain 2 AUAUCCCGUGGACCGAUAAUUUCCG; chemistry not given here; one strand in two spellings) | − (<50% mRNA knockdown) | ++ (70-90% mRNA knockdown) | − (no growth inhibition) |  |  |  |
| SEQ ID NO: 4909: siRNA targeting SLC3A2 (4F2hc) (chain 1 AAGAGCATCAGCTGGTAGAGTCGGA; chain 2 AAGAGCAUCAGCUGGUAGAGUCGGA; Antisense strand given in DNA and RNA notation, chemistry not given here; one strand in two spellings) | + (50-70% mRNA knockdown) | ++ (70-90% mRNA knockdown) | − (no growth inhibition) |  |  |  |
| SEQ ID NO: 4939: siRNA targeting ATP2B1 (PMCA1) (chain 1 ATTAACAGTAAGTTGGAACTGAAGG; chain 2 AUUAACAGUAAGUUGGAACUGAAGG; chemistry not given here; one strand in two spellings) | + (50-70% mRNA knockdown) | ++ (70-90% mRNA knockdown) | − (no growth inhibition) |  |  |  |
| SEQ ID NO: 4926: siRNA targeting SLC25A1 (CIC) (chain 1 AGTCCCACGTGTTCCGGTATTTGTG; chain 2 AGUCCCACGUGUUCCGGUAUUUGUG; chemistry not given here; one strand in two spellings) | ++ (70-90% mRNA knockdown) | ++ (70-90% mRNA knockdown) | ++ (inhibits by at least 75%) |  |  |  |
| SEQ ID NO: 5308: Stealth siRNA targeting RRM2 (chain 1 TTATACATCTGCCAGATATCATGGT; chain 2 UUAUACAUCUGCCAGAUAUCAUGGU; Stealth siRNA, chemical pattern not given here; one strand in two spellings) |  |  |  | ++ (70-90% mRNA knockdown) | ++ (70-90% mRNA knockdown) | ++ (inhibits by at least 75%) |
| SEQ ID NO: 4946: siRNA targeting ATP2B4 (PMCA4) (chain 1 AATATCACCAACCACAATCTCAGCC; chain 2 AAUAUCACCAACCACAAUCUCAGCC; chemistry not given here; one strand in two spellings) | ++ (70-90% mRNA knockdown) | ++ (70-90% mRNA knockdown) | − (no growth inhibition) |  |  |  |
